Laboratory results: PMC4735555, “Crystal structure of the N-myristoylated lipopeptide-bound MHC class I complex” (Nature Communications, 2016)

Experiments:
Mamu-B*098 = assay: Biolayer interferometry binding to β2m-linked Mamu-B*098; parameters: species or system rhesus macaque; conditions: Octet RED96; biotinylated β2m-linked Mamu-B*098; lipopeptide 10 μM, 45 min, then 30 min without; 20 mM Tris-HCl pH 7.5, 150 mM NaCl, 2% DMSO; 30 °C; representative of three independent experiments
Excerpt: (§1) Single-chain MHC proteins in which β2m was linked via a Gly-Ser linker (GGGGSGGSGSGGGSS) to the ectodomain of either Mamu-B*098 or Mamu-A*02, followed by a biotinylation sequence peptide (LHHILDAQKMVWNHR), were also expressed in E. coli and were purified in a similar manner to the trimer complex of Mamu-B*098, β2m and C14nef5. The β2m-linked Mamu-B*098 protein was refolded without C14nef5, whereas the β2m-linked Mamu-A*02 protein was refolded in the presence of the YY9 peptide (YTSGPGIRY). These recombinant proteins (3 mg) were biotinylated by being incubated for 12 h at 20 °C with 2 μg of BirA enzyme (Sigma-Aldrich, St Louis, MO) in a biotinylation buffer containing 100 mM Tris-HCl pH 8.0, 5 mM MgCl2, 4.5 mM ATP and 4 mM D-biotin, and were purified by size-exclusion chromatography.
(§2) The binding of ligands to MHC class I molecules was analysed using the Octet RED96 system equipped with a streptavidin-conjugated biosensor (Pall ForteBio, Menlo Park, CA) according to the manufacturer's instructions. Biotinylated β2m-linked Mamu-B*098 and Mamu-A*02 proteins were immobilized on the sensor tip surface with a signal magnitude of ∼5.0 nm. […] After reference subtraction, binding signals were analysed using the BIAevaluation 3.1 software. […]

[1] = test system: 2N5.1 (plate-coated Mamu-B*098); assay: T-cell assay with plate-coated Mamu-B*098, IFN-γ release by 2N5.1; type: cell-based, rhesus macaque; conditions: 10 μg MHC protein, 1 μg lipopeptide loaded overnight 37 °C; 5 × 10^4 T cells per well, 24 h; IFN-γ ELISA
Excerpt: as §1
Streptavidin-coated 96-well plates (Thermo Scientific, Hudson, NH) were overlaid with 10 μg of the biotinylated β2m-linked Mamu-B*098 and Mamu-A*02 proteins, and lipopeptide Ags (1 μg) were loaded by an overnight incubation at 37 °C. The wells were then washed extensively and T cells (5 × 10^4 per well) were added. After a 24-h incubation at 37 °C, aliquots of the culture supernatants were collected and the amount of IFN-γ released into the medium was measured by a human/monkey IFN-γ enzyme-linked immunosorbent assay kit (Mabtech, Nacka Strand, Sweden).

2N5.1 TCR = assay: SPR binding of soluble 2N5.1 TCR to peptide-loaded Mamu-A*02; parameters: species or system rhesus macaque; conditions: in words; Biacore 3000, 30 °C; soluble 2N5.1 TCR αβ dimer; YY9 peptide-loaded Mamu-A*02 immobilized; pH 7.5
Excerpt: as §1
TCR dimers were generated by the disulfide-linked TCR method. […]
as §2, with “instructions.” for “instructions. Biotinylated β2m-linked Mamu-B*098 and Mamu-A*02 proteins were immobilized on the sensor tip surface with a signal magnitude of ∼5.0 nm.”

Substance	physical interaction with immobilized Mamu-B*098 (biolayer interferometry) (Mamu-B*098)	IFN-γ response of 2N5.1 to plate-coated Mamu-B*098 with lipopeptide Ag [1]	interaction of 2N5.1 TCR with peptide-loaded Mamu-A*02 (SPR) (2N5.1 TCR)
C14-GGAAS	bound to B*098	failed to stimulate 2N5.1 even in the presence of Mamu-B*098	–
YTSGPGIRY [YY9, YY9 peptide (…)]	–	–	no interaction was detected
